According to article PMC5518293, “An Iterative Module in the Azalomycin F Polyketide Synthase Contains a Switchable Enoylreductase Domain” (Angewandte Chemie (International Ed. in English), 2017):

Target: T1, AzlA (Streptomyces sp. 211726, UniProt A0A1W6GWW1)
T1 construct: recombinant multienzyme, loading module (ACPL) plus extension module 1 (KS-AT-DH-ER-KR-ACP); mutant stated expressed in E. coli BAP1, holo-ACP1
Test: one-pot reconstitution, LC-ESI-HRMS of acyl-ACP1 and of hydrolysed products
Type: biochemical
Details: extender unit; with Azl4, Azl5, 4-guanidinobutyric acid and added stand-alone holo-ACP1

CC(C)(COP(=O)(O)OP(=O)(O)OC[C@H]1O[C@@H](n2cnc3c(N)ncnc32)[C@H](O)[C@@H]1OP(=O)(O)O)[C@@H](O)C(=O)NCCC(=O)NCCSC(=O)CC(=O)O [malonyl‐CoA]
one-pot reconstitution, LC-ESI-HRMS of acyl-ACP1 and of hydrolysed products: recruits malonyl‐CoA as extender unit
